Measured values: patent publication US11827543B2, “Method for continuous supply of superoxide-containing peracetate oxidant solution” (Clean Chemistry, Inc., priority 2014, dated 2023)

How the values were obtained:
[1] = ORP (oxidative-reductive potential) measurement of solutions and treated water; assay type: physicochemical; details: for ORP (mV vs SHE): early flowback water, Example 19, 1.7 mmol/L oxidant; for ORP: 29 mM, pH 7
Experimental: Example 9: Hydrogen Peroxide Residual Concentration and interference. A sodium peracetate oxidant solution was produced according to the procedure in Example 4 and diluted to 2800 mg/L (28.5 mmol/L) with either distilled water, for clean water conditions, or tap water containing about 0.18 mg/L copper, which served as an activation catalyst. Some samples were spiked with 30 or 60 mg/L (0.88 or 1.76 mmol/L, respectively) hydrogen peroxide from a 1000 mg/L stock solution. […] The temperature of the samples was maintained at 25±2° C. with a heated water bath. The ORP response was monitored over time to observe the impact of adding low concentrations of hydrogen peroxide. The pH was measured using a high sodium electrode (Oakton model 35805-05) with three point calibration and automatic temperature correction. The ORP (oxidative-reductive potential) of solutions was measured using an Oakton model 35805-15 ORP probe calibrated to the standard hydrogen electrode (SHE) using Thermo/Orion ORP standard 967901.
(§1) Water parameters were measured by a variety of methods. The pH was measured using a high sodium electrode (Oakton model 35805-05) with three point calibration and automatic temperature correction. The ORP (oxidative-reductive potential) of solutions was measured using an Oakton model 35805-15 ORP probe calibrated to the standard hydrogen electrode (SHE) using Thermo/Orion ORP standard 967901. Sodium ion concentration was measured using a Cole-Parmer ion selective electrode, EW-27504-30, with two point calibration of a sodium standard solution of NaCl. Chloride ion concentration was measured using a Cole-Parmer ion selective electrode, SC-27504-08, with two point calibration of a chloride standard solution of NaCl. All measurements using HACH methods were measured using a HACH DR900 colorimeter. Calcium, magnesium and total hardness concentrations were measured using HACH method 8030. Sulfate concentration was measured using HACH method 10248. Aluminum concentration was measured using HACH method 8012. Iron concentration was measured using HACH method 10249 modified with a longer reaction time to minimize interferences from organic impurities. Total suspended solids (TSS) concentration was measured using HACH method 8006 modified for smaller volumes. Turbidity was measured using HACH method 8237. ATP (adenosine triphosphate) concentration was measured using the LuminUltra 2nd Generation metabolic ATP measurement technology with the LuminUltra Quench Gone-Organic Modified sampling method, a PhotonMaster Luminometer and LumiCalc software. Acid producing bacteria (ABP) and sulfate reducing bacteria (SRB) cell culture concentrations were measured with standard 1 mL serial dilutions using Intertek APB and SRB culture media, 1% salinity.

pH of treated water = assay type: physicochemical
Experimental: as §1

[2] = Chlorine dioxide stock solution concentration over time (HACH DPD method); assay type: physicochemical; details: 2800 mg/L stock solution, room temperature, 7 days
Experimental: Chlorine dioxide stock solution preparation: One AQUA-Tab 20 G chlorine dioxide tablet (Beckart Environmental, Inc.) was dissolved in 32 oz (946 mL) of distilled water in a closed polyethylene container according to the product instructions. The yellow solution was allowed to sit for at least 1 hour before use. The chlorine dioxide concentration was measured before use using the HACH DPD method no. 10126 after diluting 0.330 mL of the prepared chlorine dioxide stock solution with distilled water to 200 mL in a volumetric flask. The initial chlorine dioxide concentration of the stock solution was measured to be 2800 mg/L. The concentration decreased slowly over time at room temperature, e.g., 6.4% decrease in 7 days.

bacteria = assay: ATP concentration (LuminUltra metabolic ATP measurement) in oxidant-treated water; assay type: cell-based; details: produced water, Example 18, 0.30 mmol/L oxidant
[3] = produced water, Example 18, 0.30 mmol/L oxidant

## [O][Cl+][O-] [chlorine dioxide, reference compound]
[1]; contact time 3 minutes
  ORP (mV vs SHE): 646 mV vs SHE
[1]; contact time 13 minutes
  ORP (mV vs SHE): 580 mV vs SHE
[1]; contact time 35 minutes
  ORP (mV vs SHE): 496 mV vs SHE
[1]; contact time 90 minutes
  ORP (mV vs SHE): 456 mV vs SHE
[1]; [3]
  ORP (mV vs SHE), maximum: 818 mV vs SHE
[1]; produced water, Example 18, 0.30 mmol/L, in the following 17 minutes
  ORP after slow decrease: 785 mV vs SHE
pH of treated water; early flowback water, Example 19, 1.7 mmol/L oxidant, contact time 3 minutes
  pH: 6.33
pH of treated water; early flowback water, Example 19, 1.7 mmol/L oxidant, contact time 13 minutes
  pH: 6.32
pH of treated water; early flowback water, Example 19, 1.7 mmol/L oxidant, contact time 35 minutes
  pH: 6.32
pH of treated water; early flowback water, Example 19, 1.7 mmol/L oxidant, contact time 90 minutes
  pH: 6.36
pH of treated water; [3]
  pH: 5.6
[2]
  decrease of concentration of stock solution: 6.4%
bacteria
  ATP (pg/mL), at 30 min CT: 7.7 pg/mL
  ATP reduction at 30 min CT: 94.3%
bacteria; untreated 135
  ATP (pg/mL), at 15 min CT: 10.3 pg/mL

## OO [hydrogen peroxide, reference compound]
[1]
  ORP: about 0.5 V (SHE)

## OCl [hypochlorous acid, reference compound]
[1]
  ORP: over 1.1 V (SHE)

## OCl [sodium hypochlorite, reference compound]
[1]; diluted, pH 10.00±0.02, 25±2 °C
  ORP (constant): about 914 mV vs SHE
